Some test systems named below: A498; ACHN; HCC 2998; MDA-MB-435; MOLT-4; Malme-3M; NCI-H522; NCI/ADR-RES; OVCAR-5; RXF 393; SF-539; SK-MEL-2; SNB-19; SNB-75; TK-10; U-251; UO-31; UACC-257; CCRF-CEM.
What all share (experiment): NCI anticancer screen, dose series, 48 h

This note sets out measurements from ChEMBL document CHEMBL1201862, “PubChem BioAssay data set” (2004).

Each structure is given as a SMILES string.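 Five concentrations, 48 hours, 96-well plates. The concentration for 50% growth inhibition is given as GI50.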 Active and inactive are the calls of the source. Rule as the data show it: active = GI50 up to about 1.1 µM and inactive = higher. A value given as a limit tells only on which side of the number the result lay.

Regarding `N#Cc1c(-c2ccc([N+](=O)[O-])cc2)cc(-c2ccc(Nc3ccnc4cc(Cl)ccc34)cc2)[nH]c1=O`, the GI50 in the test with A498, in the test on ACHN, with HCC 2998, with MDA-MB-435, in the test with MOLT-4 and with Malme-3M was > 100 µM (inactive) throughout. The GI50 in the test on NCI-H522, with NCI/ADR-RES, in the test on OVCAR-5, in the test with RXF 393, with SF-539 and in the test on SK-MEL-2 was > 100 µM (inactive) each time. The GI50 with SNB-19 was 63.8 µM (inactive); in the test with SNB-75 it was > 100 µM (inactive); in the test on TK-10 it was 98.9 µM (inactive); in the test on U-251 it was > 100 µM (inactive); in the test with UO-31, > 100 µM (inactive).
Regarding `O=C1C=C/C(=N/c2cccc3c(/N=C4/C=CC(=O)O4)cccc23)O1`, the GI50 with A498 was > 100 µM (inactive); in the test on ACHN, 29 µM (inactive); in the test with HCC 2998 it was > 100 µM (inactive); in the test on MDA-MB-435 it was 44.5 µM (inactive); in the test on MOLT-4, 3.72 µM (inactive); in the test on Malme-3M, 22.2 µM (inactive). The GI50 with NCI-H522 was 18.7 µM (inactive); in the test with NCI/ADR-RES, 95.7 µM (inactive); in the test with OVCAR-5, 54.8 µM (inactive); in the test with RXF 393, 20.7 µM (inactive); with SF-539, 19.1 µM (inactive); in the test on SK-MEL-2 it was > 100 µM (inactive). Besides, the GI50 in the test on SNB-19 was > 100 µM (inactive); with SNB-75, > 100 µM (inactive); with TK-10, 17.7 µM (inactive); with U-251, > 100 µM (inactive); in the test with UACC-257, 22.3 µM (inactive); in the test on UO-31 it was > 100 µM (inactive).
As for `CC1(C)CSCC(C)(C)C(=N/N)/C1=N\N`, the GI50 in the test on A498, with ACHN, with HCC 2998, with MDA-MB-435, with Malme-3M and with NCI-H522 was > 100 µM (inactive) each time. In addition, the GI50 in the test with NCI/ADR-RES, with OVCAR-5, with SF-539, with SK-MEL-2, with SNB-19 and in the test on SNB-75 was > 100 µM (inactive) throughout. For the same compound, the GI50 in the test on TK-10, in the test on U-251 and in the test with UACC-257 was > 100 µM (inactive) each time.
Turning to `CCCc1nnc2sc(COc3ccc(OCc4nn5c(CCC)nnc5s4)c(Cl)c3)nn12`, the GI50 with A498 is 23.6 µM (inactive); in the test on ACHN it was 20.9 µM (inactive); with HCC 2998, 23.8 µM (inactive); with MDA-MB-435, 20.5 µM (inactive); with MOLT-4, 24.9 µM (inactive); in the test with Malme-3M it was 22.1 µM (inactive). Besides, the GI50 was 21.1 µM (inactive) in the test on NCI-H522; 30.5 µM (inactive) with NCI/ADR-RES; 50.4 µM (inactive) in the test on OVCAR-5; 27 µM (inactive) in the test on RXF 393; 12.1 µM (inactive) in the test on SF-539; 42.1 µM (inactive) with SK-MEL-2. For the same compound, the GI50 in the test with SNB-19 was 33.8 µM (inactive); in the test with SNB-75, 22.2 µM (inactive); in the test with TK-10, 31.3 µM (inactive); in the test on U-251, 38.2 µM (inactive); in the test on UACC-257, 20.3 µM (inactive); with UO-31, 14.6 µM (inactive).
For `CC(C)=C[C@@H]1C[C@H](C)c2c(O)cc(C)c3c2C1=C(C)C(=O)C3=O` [ELISABATIN A], the GI50 was 19.1 µM (inactive) with A498; 17.6 µM (inactive) in the test on ACHN; 22.4 µM (inactive) in the test on CCRF-CEM; 21.8 µM (inactive) in the test on HCC 2998; 15.6 µM (inactive) with MDA-MB-435; 28.6 µM (inactive) with MOLT-4. The GI50 in the test with Malme-3M was 16 µM (inactive); with NCI-H522 it was 15.3 µM (inactive); with NCI/ADR-RES, 18.9 µM (inactive); in the test on OVCAR-5, 24.7 µM (inactive); in the test with SF-539, 17.9 µM (inactive); in the test with SNB-19, 14.4 µM (inactive). The GI50 in the test on SNB-75 is 17.4 µM (inactive); with TK-10 it was 22.3 µM (inactive); in the test with U-251, 13.8 µM (inactive); with UACC-257 it was 17.6 µM (inactive).
For the compound `O=C(O)[C@@H]1CCC(=O)N1C(c1ccc2c(c1)OCO2)c1ccc2c(c1)OCO2`, the GI50 in the test on A498 was > 100 µM (inactive); in the test with ACHN it was > 100 µM (inactive); in the test on CCRF-CEM it was > 10 µM (inactive); in the test on HCC 2998, > 100 µM (inactive); in the test with MDA-MB-435 it was > 100 µM (inactive); in the test with MOLT-4, > 100 µM (inactive). The GI50 in the test with Malme-3M, with NCI-H522, with NCI/ADR-RES, in the test on OVCAR-5, in the test on SF-539 and with SK-MEL-2 was > 100 µM (inactive) throughout. In addition, the GI50 with SNB-19, in the test on SNB-75, in the test with TK-10, with U-251, in the test with UACC-257 and in the test on UO-31 was > 100 µM (inactive) in each case.
As for `Clc1cc(Cl)nc(Nc2ccc3c(c2)CCC3)n1`, the GI50 with A498 is 31.3 µM (inactive); in the test on ACHN, 35.1 µM (inactive); with CCRF-CEM, 30.3 µM (inactive); with HCC 2998, 16.4 µM (inactive); with MDA-MB-435, 58.5 µM (inactive); with MOLT-4, 13.8 µM (inactive). Further, the GI50 in the test with Malme-3M is 28.6 µM (inactive); with NCI-H522, 2.54 µM (inactive); with NCI/ADR-RES, 48 µM (inactive); in the test on OVCAR-5, 77.8 µM (inactive); with SF-539, > 100 µM (inactive); in the test on SK-MEL-2 it was 45 µM (inactive). Moreover, the GI50 in the test with SNB-19 was 89.5 µM (inactive); in the test on TK-10 it was 18.1 µM (inactive); in the test with U-251, 62.5 µM (inactive); with UACC-257 it was 42 µM (inactive); in the test with UO-31, 41.4 µM (inactive).
As to `COc1cc2c(c(OC)c1OC)-c1ccc(SC)cc1[C@H](OC(=O)c1ccccc1)CC2`, the GI50 was 0.437 µM (active) in the test with A498; 0.189 µM (active) in the test on ACHN; 0.0488 µM (active) in the test with CCRF-CEM; 0.32 µM (active) in the test on HCC 2998; 0.0168 µM (active) with MDA-MB-435; 0.151 µM (active) in the test on MOLT-4. The GI50 with NCI-H522 is 0.0324 µM (active); in the test with NCI/ADR-RES, 0.0946 µM (active); in the test on OVCAR-5, 0.622 µM (active); with RXF 393, 0.0334 µM (active); in the test with SF-539 it was 0.0369 µM (active); in the test with SK-MEL-2 it was > 100 µM (inactive). The GI50 is 0.0828 µM (active) in the test with SNB-19; > 100 µM (inactive) in the test with SNB-75; > 100 µM (inactive) in the test with TK-10; 0.071 µM (active) in the test on U-251; > 100 µM (inactive) in the test with UACC-257; 0.145 µM (active) in the test on UO-31.
Regarding `CN(C)C(=O)Oc1ccc[n+](C)c1` [PYRIDOSTIGMINE BROMIDE], the GI50 with A498, in the test with ACHN, with HCC 2998, in the test on MDA-MB-435, in the test with MOLT-4 and with Malme-3M was > 100 µM (inactive) throughout. The GI50 with NCI-H522, with NCI/ADR-RES, in the test on OVCAR-5, in the test with RXF 393, in the test on SK-MEL-2 and with SNB-19 was > 100 µM (inactive) throughout. The GI50 in the test with SNB-75, in the test on TK-10, in the test on U-251, in the test on UACC-257 and in the test with UO-31 was > 100 µM (inactive) each time.
With `c1ccc2c(c1)CCN2CCN1CCc2ccccc21`, the GI50 with ACHN, with CCRF-CEM, with HCC 2998, in the test with MDA-MB-435, with MOLT-4 and with NCI-H522 was > 10 µM (inactive) in each case. Besides, the GI50 in the test with NCI/ADR-RES, with OVCAR-5, in the test with RXF 393, in the test with SF-539, in the test on SK-MEL-2 and in the test on SNB-19 was > 10 µM (inactive) throughout. For the same compound, the GI50 in the test on SNB-75, in the test with TK-10, in the test with U-251, in the test on UACC-257 and in the test with UO-31 was > 10 µM (inactive) each time.
As to `Cc1ccc(C)n1-n1c(Cc2ccccc2)n[nH]c1=O`, the GI50 in the test on A498, in the test on ACHN, in the test on CCRF-CEM, in the test on HCC 2998, in the test on MDA-MB-435 and with MOLT-4 was > 100 µM (inactive) each time. Also, the GI50 is > 100 µM (inactive) in the test with Malme-3M; 49.2 µM (inactive) with NCI-H522; > 100 µM (inactive) in the test on NCI/ADR-RES; > 100 µM (inactive) with OVCAR-5; > 100 µM (inactive) in the test with RXF 393; > 100 µM (inactive) in the test with SK-MEL-2. For the same compound, the GI50 is > 100 µM (inactive) with SNB-19; 22.2 µM (inactive) with SNB-75; > 100 µM (inactive) in the test with TK-10; > 100 µM (inactive) in the test on U-251; 46 µM (inactive) with UACC-257; > 100 µM (inactive) in the test on UO-31.
